Laboratory results taken from ChEMBL document CHEMBL4610123, “Structure-Based Drug Discovery of N-((R)-3-(7-Methyl-1H-indazol-5-yl)-1-oxo-1-(((S)-1-oxo-3-(piperidin-4-yl)-1-(4-(pyridin-4-yl)piperazin-1-yl)propan-2-yl)amino)propan-2-yl)-2'-oxo-1',2'-dihydrospiro[piperidine-4,4'-pyrido[2,3-d][1,3]oxazine]-1-carboxamide (HTL22562): A Calcitonin Gene-Related …” (J Med Chem, 2020).
Values after ≈ are worked out from the molar mass of the structure shown.

Legend:
[1] = target: T1, Calcitonin-gene-related peptide receptor, CALCRL/RAMP1 (Homo sapiens, UniProt O60894+Q16602); test: Displacement of [3H]telcagepant from recombinant human CLR/RAMP1 expressed in Sf21 insect cell membranes measured after 60 mins by microbeta scintillation counting method
T1 sequence (O60894 whole entry): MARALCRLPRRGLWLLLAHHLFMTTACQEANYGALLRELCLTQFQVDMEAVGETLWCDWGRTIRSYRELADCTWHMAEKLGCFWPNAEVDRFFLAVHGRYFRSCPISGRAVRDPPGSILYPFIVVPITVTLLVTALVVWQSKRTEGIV
T1 sequence (Q16602 whole entry): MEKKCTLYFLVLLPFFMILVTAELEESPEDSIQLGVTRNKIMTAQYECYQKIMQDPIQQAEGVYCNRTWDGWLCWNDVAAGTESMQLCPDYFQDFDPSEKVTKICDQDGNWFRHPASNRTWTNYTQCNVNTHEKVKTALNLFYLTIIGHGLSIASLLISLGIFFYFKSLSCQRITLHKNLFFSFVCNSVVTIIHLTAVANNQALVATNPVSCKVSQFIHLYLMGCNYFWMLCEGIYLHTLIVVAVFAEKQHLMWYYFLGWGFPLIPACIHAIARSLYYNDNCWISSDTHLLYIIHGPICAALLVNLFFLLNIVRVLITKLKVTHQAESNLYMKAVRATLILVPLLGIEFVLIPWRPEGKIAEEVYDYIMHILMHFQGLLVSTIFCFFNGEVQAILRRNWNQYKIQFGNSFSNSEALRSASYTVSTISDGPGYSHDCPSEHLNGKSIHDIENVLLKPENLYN

[2] = target: T1, Calcitonin-gene-related peptide receptor, CALCRL/RAMP1; test: Antagonist activity at human CGRP receptor in human SK-N-MC cells assessed as inhibition of CGRP-induced cAMP production preincubated for 30 mins followed by CGRP addition and measured after 30 mins by HTRF assay; type: functional, cell-based
[3] = Thermodynamic solubility of the compound at pH 6; type: physicochemical; conditions: buffer, read-out: Therm_solubility
[4] = Clearance in rat at 2 mg/kg, iv using 100% acidified saline formulation; type: ADME, organism-based; conditions: in vivo
[5] = Thermodynamic solubility of the compound at pH 7.4; type: physicochemical; conditions: buffer, read-out: Therm_solubility
[6] = Clearance in rat at 2 mg/kg, iv using 10% DMAC[…] Solutol HS15/80% saline formulation; type: ADME, organism-based; conditions: in vivo
[7] = Clearance in rat at 0.5 mg/kg, iv; type: ADME, organism-based; conditions: in vivo

SMILES | pKb [2] | clearance [6] [L/h/kg] | also measured
Cc1cc(C[C@@H](NC(=O)N2CCC(n3c(=O)[nH]c4ncccc43)CC2)C(=O)N[C@@H](CCCCN)C(=O)N2CCN(c3ccncc3)CC2)cc2cn[nH]c12 | 11 |  | Ki [1]: 0.0251 nM
Cc1cc(C[C@@H](NC(=O)N2CCC(n3c(=O)[nH]c4ncccc43)CC2)C(=O)N[C@@H](Cc2ccncc2)C(=O)N2CCN(c3ccncc3)CC2)cc2cn[nH]c12 | 10 |  | solubility thermodynamic [3]: 1770 µM (≈ 1340 µg/mL); Ki [1]: 0.1 nM; clearance [4]: 5.22 L/h/kg; solubility thermodynamic [5]: 230 µM (≈ 174 µg/mL)
O=C(N[C@@H](CC1CCNCC1)C(=O)N1CCN(c2ccncc2)CC1)[C@@H](Cc1cc(Br)c(O)c(Br)c1)NC(=O)N1CCC(n2c(=O)[nH]c3ncccc32)CC1 | 10.8 | 1.68 | 
Cc1cc(C[C@@H](NC(=O)N2CCC(N3Cc4ccccc4NC3=O)CC2)C(=O)N[C@@H](CC2CCNCC2)C(=O)N2CCN(c3ccncc3)CC2)cc2cn[nH]c12 | 10.1 | 0.36 | 
NCCCC[C@H](NC(=O)[C@@H](Cc1cc(Br)c(O)c(Br)c1)NC(=O)N1CCC(N2Cc3ccccc3NC2=O)CC1)C(=O)N1CCN(c2ccncc2)CC1 [OLCEGEPANT] | 11.2 | 2.28 | 
Cc1cc(C[C@@H](NC(=O)N2CCC(n3c(=O)[nH]c4ncccc43)CC2)C(=O)N[C@@H](CC2CCNCC2)C(=O)N2CCN(c3ccncc3)CC2)cc2cn[nH]c12 |  |  | clearance [7]: 3.3 L/h/kg
O=C(N[C@@H](CC1CCNCC1)C(=O)N1CCN(c2ccncc2)CC1)[C@@H](Cc1cc(Br)c(O)c(Br)c1)NC(=O)N1CCC(N2Cc3ccccc3NC2=O)CC1 | 11.2 | 1.26 | 
Cc1cc(C[C@@H](NC(=O)N2CCC(c3cc4ccccc4[nH]c3=O)CC2)C(=O)N[C@@H](CC2CCNCC2)C(=O)N2CCN(c3ccncc3)CC2)cc2cn[nH]c12 | 9.8 | 1.86 | solubility thermodynamic [3]: 10 µM (≈ 7.73 µg/mL)
